One data set relates to MCF7. Kind of data set: Sulforhodamine B (SRB) growth inhibition assay. It is filed as cell-based, Human. Conditions: Homo sapiens, SRB assay, cells exposed for 24 h, read-out: GI50 values (μM) MCF7. The protocol: (§1) In Vitro Screening of PEG-Gemcitabine Monophosphate in Selected Human Cancer Cell Lines
(§2) The aim was to determine the GI50 values for PEG-floxuridine conjugates against a panel of cell lines, and based on previous data from Xenograft studies. […] The test articles were solubilized in dimethylsulfoxide and were tested at four different molar (M) concentrations; 10^−4, 10^−5, 10^−6, M. GI50 (the concentration needed to reduce the growth of treated cells to half that of untreated control cells) was calculated for each condition ([(Ti−Tz)/(C-Tz)]×100=50, where Ti, Tz, and C refer to absorbance values obtained from each tested concentration, time zero, and control treatment, respectively).
as §2, with “The objective” for “The aim”, “the IC50” for “the GI50”, “for PEG-gemcitabine” for “for PEG-floxuridine”, “in dimethyl sulfoxide” for “in dimethylsulfoxide”, “10^−6, 10^−7” for “10^−6,”, “condition ([(Ti−Tz)/(C−Tz)]×100=50,” for “condition ([(Ti−Tz)/(C-Tz)]×100=50,”
(In SRB staining, fixed cells bind dye roughly in proportion to their protein.)

The subject of another data set is Hop62. Kind of data set: Sulforhodamine B (SRB) growth inhibition assay. It is filed as cell-based, Human. The following applies: Homo sapiens, HOP-62, SRB assay, cells exposed for 24 h, read-out: GI50 values (μM) Hop62. The procedure:
as §1, §2
as §2, with “The objective” for “The aim”, “the IC50” for “the GI50”, “for PEG-gemcitabine” for “for PEG-floxuridine”, “in dimethyl sulfoxide” for “in dimethylsulfoxide”, “10^−6, 10^−7” for “10^−6,”, “condition ([(Ti−Tz)/(C−Tz)]×100=50,” for “condition ([(Ti−Tz)/(C-Tz)]×100=50,”

Another data set concerns HT29. Kind of data set: Sulforhodamine B (SRB) growth inhibition assay. It is filed as cell-based, Human. Conditions: Homo sapiens, HT-29, SRB assay, cells exposed for 24 h, read-out: GI50 values (μM) HT29. The protocol:
as §1, §2
as §2, with “The objective” for “The aim”, “the IC50” for “the GI50”, “for PEG-gemcitabine” for “for PEG-floxuridine”, “in dimethyl sulfoxide” for “in dimethylsulfoxide”, “10^−6, 10^−7” for “10^−6,”, “condition ([(Ti−Tz)/(C−Tz)]×100=50,” for “condition ([(Ti−Tz)/(C-Tz)]×100=50,”

The test system of a further data set is A2780. In words: Sulforhodamine B (SRB) growth inhibition assay. It is filed as cell-based, Human. The following applies: Homo sapiens, SRB assay, cells exposed for 24 h, read-out: GI50 values (μM) A2780. The procedure: as §1, §2
as §2, with “The objective” for “The aim”, “the IC50” for “the GI50”, “for PEG-gemcitabine” for “for PEG-floxuridine”, “in dimethyl sulfoxide” for “in dimethylsulfoxide”, “10^−6, 10^−7” for “10^−6,”, “condition ([(Ti−Tz)/(C−Tz)]×100=50,” for “condition ([(Ti−Tz)/(C-Tz)]×100=50,”

Another data set has as its system DU145. In words: Sulforhodamine B (SRB) growth inhibition assay. It is filed as cell-based, Human. The following applies: Homo sapiens, DU-145, SRB assay, cells exposed for 24 h, read-out: GI50 values (μM) DU145. The protocol: as §2
as §2, with “The objective” for “The aim”, “the IC50” for “the GI50”, “for PEG-gemcitabine” for “for PEG-floxuridine”, “in dimethyl sulfoxide” for “in dimethylsulfoxide”, “10^−6, 10^−7” for “10^−6,”, “condition ([(Ti−Tz)/(C−Tz)]×100=50,” for “condition ([(Ti−Tz)/(C-Tz)]×100=50,”

Data set [1] in a line: Bi-directional permeability in Caco-2 cells. Conditions: human.
Text: (§5) Bi-Directional Permeability of PEG-Floxuridine Conjugates in Caco-2 and MDCK Cells
A short description of data set [2]: Bi-directional permeability in MDCK cells. The following applies: dog.
Text: as §5
The next data set deals with MIA PaCa-2. In words: In vitro cytotoxicity assay (CellTiter-Glo). It is filed as cell-based. Conditions: Homo sapiens, 72 h exposure, CellTiter-Glo. The protocol:
(§3) The objective of these studies were to determine the IC50 values for PEG-floxuridine conjugates against floxuridine-resistant cell lines based on data from previous Xenograft studies. The cells were exposed for 72 h, and cell viability assessed by using the CellTiter-Glo assay.
(§4) The objective of these studies was to determine the IC50 values for PEG-gemcitabine conjugates against gemcitabine-resistant cell lines based on data from previous Xenograft studies. The cells were exposed for 72 h, and cell viability assessed by using the CellTiter-Glo assay.

For a further data set, the system named is HT-29. In words: In vitro cytotoxicity assay (CellTiter-Glo). The following applies: Homo sapiens, 72 h exposure, CellTiter-Glo. It is filed as cell-based. The procedure: as §3, §4
In general terms: Cellular ATP, detected with luciferase, serves as a proxy for viable cell number.

A further data set has as its system HCT-116. Kind of data set: In vitro cytotoxicity assay (CellTiter-Glo). It is filed as cell-based. The following applies: Homo sapiens, 72 h exposure, CellTiter-Glo. The procedure:
as §3, §4

A short description of data set [3]: Stability in cell culture medium (floxuridine release, HPLC). It is filed as in vitro ADME. The procedure: The frozen samples were thawed and homogenized by vortex mixing. A 10 μl aliquot of the sample was transferred into a clean EPPENDORF tube. Samples were diluted with 190 μl methanol: water mixture (1:1, v/v). The tubes were vortex mixed and centrifuged for 10 min. The supernatant was transferred to HPLC vials and 10 μl volume of the sample was injected onto the HPLC system.

A further data set relates to CAKI-1. In words: In vitro cytotoxicity assay (CellTiter-Glo). It is filed as cell-based. Conditions: Homo sapiens, 72 h exposure, CellTiter-Glo.
Data set [4] in a line: in vitro. Conditions: human, Caco-2.
Text: as §5
Data set [5] in a line: in vitro. Conditions: dog, MDCK.
Text: as §5
A further data set relates to PANC-1. The following applies: Zajchowski et al. 2005; cited from earlier work.

The GI50 is the concentration giving 50% growth inhibition. As usually defined, the IC50 is the concentration that gives 50% inhibition. Higher therefore signals a need for much substance. By Papp A→B is commonly meant the apparent permeability from the apical to the basolateral side of a cell layer. The low end stands for poor permeation, the high end for ready permeation. As usually defined, the Papp B→A is the apparent permeability from the basolateral to the apical side of a cell layer. A word on the efflux ratio: it is the permeability from basolateral to apical divided by that in the opposite direction, in the common usage.

For the molecule `O=c1[nH]c(=O)n([C@H]2C[C@H](O)[C@@H](CO)O2)cc1F` [Floxuridine, reference compound], the GI50 came to 0.15 µM in the data set with MCF7; 0.24 µM in the data set on Hop62; 25 µM in the data set on HT29; 0.065 µM with A2780; 26 µM with DU145. Besides, the recovery was 75% in data set [1] (Caco-2, percent recovery A -> B); 91% in [1] (Caco-2, percent recovery B -> A); 50% in [2] (percent recovery A -> B); 82% in [2] (percent recovery B -> A). Also, the 50% inhibitory concentration (IC50) with MIA PaCa-2 worked out at 54 nM; with HT-29, 90 nM; in the data set on HCT-116 it was 32 nM; in the data set on CAKI-1, 110 nM. For the same molecule, the Significant efflux result in the data set with Caco-2 cells and with MDCK cells was “No” in each case. Moreover, the “permeability across Caco-2 monolayers (in words)” value in the data set on Caco-2 cells is on record as “poor permeability”. For the same molecule, the “Peak Area of measured floxuridine” value in [3] (HPLC, supernatant of MCF-7 culture after 48 h with test article) worked out at 119819. In data set [3] (after cells were treated with test article), the “concentration of floxuridine estimated in culture medium” value is given as 24.44. In data set [3] (diluted sample (10 μL diluted to 200 μL), MCF-7 culture supernatant, 48 h), the “Calculated Concentration (μg/mL) of floxuridine” value was 1.211 µg/mL. Moreover, the “Total Calculated Concentration in the sample using dilution factor” value in data set [3] (floxuridine in MCF-7 culture supernatant, 48 h, nominal 24.6 μg/mL) is recorded as 24.22. In addition, the Papp A→B in the data set “in vitro [4]” is 0.75 ×10⁻⁶ cm/s; in the data set “in vitro [5]” it was less than 2.46 ×10⁻⁶ cm/s. Besides, the basolateral-to-apical permeability (Papp B→A) in “in vitro [4]” was 1.47 ×10⁻⁶ cm/s; in the data set “in vitro [5]”, less than 2.7 ×10⁻⁶ cm/s. In addition, in the data set “in vitro [4]”, the efflux ratio amounted to 2. In addition, the “permeability through MDCK monolayers (in words)” value in the data set on MDCK cells was “poor permeability”.
As for `Nc1ccn([C@@H]2S[C@H](CO)[C@@H](O)[C@@H]2F)c(=O)n1` [4′-thio-FAC], the “resistance of PANC-1 in vitro (shown previously)” value in the data set with PANC-1 is “resistant”.

The values are drawn from US9365604B2, “Oligomer-nucleoside phosphate conjugates” (NEKTAR THERAPEUTICS, priority 2007, dated 2016).
